Test results published in patent publication US7723265B2, “Pesticide compositions containing oxalic acid” (Monsanto Technology, priority 2000, dated 2010).
Where two headings read alike, the source gives them in different places.

Assays:
Format in all cases: in vivo
[1] = system: velvetleaf (Abutilon theophrasti, ABUTH); assay: Greenhouse test of herbicidal effectiveness (visual percent control) on velvetleaf
Source text: (§1) The following procedure was used for testing compositions of the Examples to determine herbicidal effectiveness, except where otherwise indicated.
(§2) Seeds of the plant species indicated were planted in 85 mm square pots in a soil mix which was previously steam sterilized and prefertilized with a 14-14-14 NPK slow release fertilizer at a rate of 3.6 kg/m3. The pots were placed in a greenhouse with sub-irrigation. About one week after emergence, seedlings were thinned as needed, including removal of any unhealthy or abnormal plants, to create a uniform series of test pots.
The plants were maintained for the duration of the test in the greenhouse where they received a minimum of 14 hours of light per day. […] Exposure temperatures were not precisely controlled but averaged about 27° C. during the day and about 18° C. during the night. Plants were sub-irrigated throughout the test to ensure adequate soil moisture levels.
(§3) Pots were assigned to different treatments in a randomized experimental design with 6 replications. A set of pots was left untreated as a reference against which effects of the treatments could later be evaluated.
(§4) Application of glyphosate compositions was made by spraying with a track sprayer fitted with a 9501E nozzle calibrated to deliver a spray volume of 93 liters per hectare (l/ha) at a pressure of 166 kilopascals (kPa). After treatment, pots were returned to the greenhouse until ready for evaluation.
Treatments were made using dilute aqueous compositions. These could be prepared as spray compositions directly from their ingredients, or by dilution with water of preformulated concentrate compositions.
For evaluation of herbicidal effectiveness, all plants in the test were examined by a single practiced technician, who recorded percent control, a visual measurement of the effectiveness of each treatment by comparison with untreated plants. […] The reported % control values represent the average for all replicates of each treatment.

[2] = system: Japanese millet (Echinochloa crus-galli var. frumentae, ECHCF); assay: Herbicidal effectiveness (percent control) on Japanese millet; conditions: comparison as worded in the text of the example
Source text: as §1
as §2, with “pots. […]” for “pots.”
as §3
as §4, with “evaluation. […]” for “evaluation.”
(§5) For evaluation of herbicidal effectiveness, all plants in the test were examined by a single practiced technician, who recorded percent control, a visual measurement of the effectiveness of each treatment by comparison with untreated plants. […]

[3] = system: morningglory (IPOSS); assay: Herbicidal effectiveness (percent control) on morningglory; conditions: comparison as worded in the text of the example
Source text: as §1
as §2, with “pots. […]” for “pots.”
as §3
as §4, with “evaluation. […]” for “evaluation.”
as §5

[4] = system: Prickly sida (SIDSP); assay: Herbicidal effectiveness (percent control) on prickly sida; conditions: comparison as worded in the text of the example
Source text: as §1
as §2, with “pots. […]” for “pots.”
as §3
as §4, with “evaluation. […]” for “evaluation.”
as §5

[5] = system: velvetleaf (ABUTH); assay: Rainfastness of Roundup UltraMax with oxalic acid on velvetleaf; conditions: glyphosate a.e.:oxalic acid 15:1; 0.25 inches of rain one or two hours after treatment, or no rain
Method: The rainfastedness of a Roundup UltraMax and oxalic acid, at a weight ratio of glyphosate a.e. to oxalic acid of 15:1, was evaluated. The Roundup UltraMax formulations were applied at rates of 300 and 500 g a.e./ha and evaluated with no rain, 0.25 inches of rain at one hour after treatment, and 0.25 inches of rain at two hours after treatment.

[6] = system: hemp sesbania (SEBEX); assay: Herbicidal effectiveness (percent control) on hemp sesbania; conditions: comparison as worded in the text of the example
Source text: as §1
as §2, with “pots. […]” for “pots.”
as §3
as §4, with “evaluation. […]” for “evaluation.”
as §5

[7] = system: sicklepod (CASOB); assay: Herbicidal effectiveness (percent control) on sicklepod; conditions: comparison as worded in the text of the example
[8] = system: Indian Mustard (BRSJU); assay: Herbicidal effectiveness (percent control) on Indian mustard; conditions: comparison as worded in the text of the example
Source text: as §1
as §2, with “pots. […]” for “pots.”
as §3
as §4, with “evaluation. […]” for “evaluation.”
as §5

[9] = system: Yellow nutsedge (Cyperus esculentus, CYPES); assay: Herbicidal effectiveness (percent control) on yellow nutsedge; conditions: 0.03% oxalic acid in potassium glyphosate tank mixes
[10] = comparison as worded in the text of the example

CC(=O)O [Acetic acid]
herbicidal efficacy on velvetleaf (ABUTH), result in words [1, 10]: did not significantly effect the efficacy

C[N+](C)(C)Cc1ccccc1.[Cl-] [Benzyltrimethylammonium chloride]
herbicidal efficacy on velvetleaf (ABUTH), result in words [1, 10]: better efficacy than did the commercial Roundup UltraMax standard

C[N+](C)(C)Cc1ccccc1.[OH-] [Benzyltrimethylammonium hydroxide]
herbicidal efficacy on velvetleaf (ABUTH), result in words [1, 10]: better efficacy than did the commercial Roundup UltraMax standard

O=C(O)CC(O)(CC(=O)O)C(=O)O [Citric acid]
herbicidal efficacy on velvetleaf (ABUTH), result in words [1, 10]: did not significantly effect the efficacy | herbicidal efficacy on velvetleaf (ABUTH), result in words ([1]; comparison as worded in the text of the example, listed as citric acid): did not have significant impact on the efficacy

O=C([O-])C(=O)[O-].[K+].[K+] [Dipotassium oxalate, dipotassium oxalate]
herbicidal efficacy on velvetleaf (ABUTH), result in words [1, 10]: enhanced efficacy regardless of the glyphosate salt | herbicidal efficacy on ECHCF (barnyardgrass), result in words [2]: relatively ineffective for enhancing efficacy against barnyardgrass

O=C(O)[C@H](O)[C@@H](O)[C@H](O)[C@H](O)CO [Gluconic acid]
herbicidal efficacy on velvetleaf (ABUTH), result in words [1, 10]: did not significantly effect the efficacy

CC(O)C(=O)O (centres unmarked) [Lactic acid]
herbicidal efficacy on velvetleaf (ABUTH), result in words [1, 10]: did not significantly effect the efficacy

O=C(O)C(=O)O [Oxalic acid]
herbicidal efficacy on morningglory (IPOSS), result in words [3]: equally effective in enhancing Roundup UltraMax efficacy on morningglory | herbicidal efficacy on prickly sida (SIDSP), result in words [4]: gave efficacy enhancement | rainfastness on velvetleaf, result in words [5]: did not provide any rainfastness properties for Roundup UltraMax on velvetleaf | herbicidal efficacy on velvetleaf (ABUTH), result in words [1]: further increased efficacy | herbicidal efficacy on hemp sesbania (SEBEX), result in words [6]: equal with the standards regardless of the presence of oxalic acid | herbicidal efficacy on ECHCF (barnyardgrass), result in words [2]: did not significantly enhance glyphosate efficacy on barnyardgrass | herbicidal efficacy on sicklepod (CASOB), result in words [7]: did not give statistically significant efficacy enhancement on sicklepod | herbicidal efficacy on Indian mustard (BRSJU), result in words [8]: did not provide significant efficacy enhancement on Indian mustard | herbicidal efficacy on yellow nutsedge (CYPES), result in words [9]: did not provide synergy on yellow nutsedge

O=P(O)(O)O [Phosphoric acid]
herbicidal efficacy on velvetleaf (ABUTH), result in words [1, 10]: did not significantly effect the efficacy | herbicidal efficacy on velvetleaf (ABUTH), result in words ([1]; comparison as worded in the text of the example, listed as phosphoric acid): did not have significant impact on the efficacy

NC(=O)CCC(=O)O [Succinamic acid]
herbicidal efficacy on velvetleaf (ABUTH), result in words [1, 10]: antagonistic effect on glyphosate efficacy

O=C(O)CCC(=O)O [Succinic acid]
herbicidal efficacy on velvetleaf (ABUTH), result in words [1, 10]: did not significantly effect the efficacy

O=C(O)CCCCC(=O)O [adipic acid, Adipic acid]
herbicidal efficacy on velvetleaf (ABUTH), result in words [1, 10]: some increased efficacy
